From US6566348B1, “Pesticides based on cyclic polysiloxanes” (Bayer Aktiengesellschaft, priority 1995, dated 2003)

Experiment: Crystallizing out at low temperatures
Assay type: physicochemical

In the case of C[Si]1(C)O[Si](C)(C)O[Si](C)(C)O[Si](C)(C)O[Si](C)(C)O1 [Decamethylcyclopentasiloxane, decamethylcyclopentasiloxane], the “stability at low temperatures” value is reported as “stable at low temperatures, without crystallizing out”.
